Measured values as given in publication PMC9606955, “In Vitro Activity of Essential Oils Distilled from Colombian Plants against Candida auris and Other Candida Species with Different Antifungal Susceptibility Profiles” (Molecules, 2022).
≈ marks a conversion by molar mass, not a printed value.

Legend:
C. albicans ATCC 10231 = experiment: MIC, CLSI M27 broth microdilution; assay type: cell-based, Candida albicans; settings: antifungal drugs; for MIC: Candida albicans, ATCC10231, geometric mean
Text: (§1) The fungal strains used in this study were C. albicans ATCC 10231, C. albicans ATCC 64550, C. parapsilosis ATCC 22019, C. tropicalis ATCC 750, C. tropicalis ATCC 200956 (resistant to azoles and AMB), C. glabrata LMDM 34 (resistant to echinocandins), C. metapsilosis MUM 15.12, C. orthopsilosis MUM 17.13, C. lusitaniae MUM 17.08, C. krusei ATCC 6258 (Issatchenkia orientalis ATCC 6258), and C. auris CDC B11903. Additionally, nine clinical isolates were included: C. parapsilosis Synlab 406 (FLC-resistant) and eight C. auris isolates identified by MALDI-TOF MS (Bruker Daltonics, Bremen, Germany) according to Zhao et al.. These yeasts were cultured on Sabouraud Dextrose Agar (SDA; Sigma-Aldrich, St. Louis, MO, USA) for 24 h at 35 °C.
(§2) Antifungal susceptibility testing was performed according to Clinical and Laboratory Standards Institute M27, 4th Edition (CLSI standard M27, 4th Edition). Some modifications were applied for evaluation of the antifungal activity of EOs and terpenes. Initially, a screening was carried out to determine the antifungal activity of the EOs and of commercial terpenes. Stock concentrations of EOs and terpenes were prepared at 512 µg/mL and an inoculum of 2.5 × 10^3 CFU/mL of each yeast was prepared in RPMI 1640-MOPS (Sigma- Aldrich St. Louis, MO, USA). Thereafter, 100 µL of each stock solution of EOs or terpenes was dispensed in 96-well microdilution plates (Corning®, Costar®, NY, USA) and 100 µL of each yeast inoculum was added. […] Microdilution plates were incubated at 35 °C and, after 24 h, the presence or absence of growth was visually checked using a manual mirror viewer and then compared with the amount of growth in the control (no EO or terpene). Compounds able to inhibit yeast growth were tested to determine the minimal inhibitory concentration (MIC) as follows: 100 µL of 10 two-fold dilutions of the EOs or commercial terpenes was dispensed in 96-well microplates and the yeast inoculum was added. Final concentrations of the EOs or terpenes ranged from 0.5 µg/mL to 256 µg/mL. Microdilution plates were incubated at 35 °C for 24 h. MICs were visually determined at the lowest concentration that produced visual inhibition compared to the growth control. The assays were performed at least three times in duplicate on different days. The results were expressed as geometric means (GM) and ranges. As an antifungal susceptibility testing control, the activity of ITC and AMB against the reference strains C. krusei ATCC 6258 and C. parapsilosis ATCC 22019 was evaluated in all experiments following the CLSI standard M27, 4th Edition. It was mandatory that the MIC values remained in the accepted range.

C. albicans ATCC 64550 = experiment: MIC, CLSI M27 broth microdilution; assay type: cell-based, Candida albicans; settings: antifungal drugs; for MIC: Candida albicans, ATCC64550, geometric mean
Text: as §1, §2

C. auris Ca 32 = experiment: MIC, CLSI M27 broth microdilution; assay type: cell-based, Candida auris; settings: C. auris Ca 32, antifungal drugs; for MIC: Candidozyma auris, CA32, geometric mean, read-out: MIC GM
How it was run: (§3)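 Endpoint: visible growth inhibition versus control, read by eye after 24 h incubation at 35 °C. Broth microdilution in RPMI 1640-MOPS, 2.5 × 10^3 CFU/mL inoculum, compounds tested from 0.5 up to 256 µg/mL final. Reported as geometric mean and range.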

C. auris Ca 1 = experiment: MIC, CLSI M27 broth microdilution; assay type: cell-based, Candida auris; settings: C. auris Ca 1, antifungal drugs; for MIC: Candidozyma auris, CA1, geometric mean, read-out: MIC GM
How it was run: as §3

C. auris Ca 9 = experiment: MIC, CLSI M27 broth microdilution; assay type: cell-based, Candida auris; settings: C. auris Ca 9, antifungal drugs; for MIC: Candidozyma auris, CA9, geometric mean, read-out: MIC GM
How it was run: as §3

C. auris Ca 41 = experiment: MIC, CLSI M27 broth microdilution; assay type: cell-based, Candida auris; settings: C. auris Ca 41; for MIC Range / MIC: antifungal drugs; for MIC: Candidozyma auris, CA41, geometric mean, read-out: MIC GM
How it was run: as §3

C. auris Ca 45 = experiment: MIC, CLSI M27 broth microdilution; assay type: cell-based, Candida auris; settings: C. auris Ca 45; for MIC Range / MIC: antifungal drugs; for MIC: Candidozyma auris, CA45, geometric mean, read-out: MIC GM
How it was run: as §3

C. auris CDC B11903 = experiment: MIC, CLSI M27 broth microdilution; assay type: cell-based, Candida auris; settings: C. auris CDCB11903, antifungal drugs; for MIC: Candidozyma auris, geometric mean, read-out: MIC GM
How it was run: as §3

C. auris Ca 10 = experiment: MIC, CLSI M27 broth microdilution; assay type: cell-based, Candida auris; settings: antifungal drugs; for MIC: Candidozyma auris, CA10, geometric mean
How it was run: as §3

C. auris Ca 46 = experiment: MIC, CLSI M27 broth microdilution; assay type: cell-based, Candida auris; settings: C. auris Ca 46; for MIC Range / MIC: antifungal drugs; for MIC: Candidozyma auris, CA46, geometric mean, read-out: MIC GM
How it was run: as §3

C. auris Ca 17 = experiment: MIC, CLSI M27 broth microdilution; assay type: cell-based, Candida auris; settings: C. auris Ca 17; for MIC Range / MIC: antifungal drugs; for MIC: Candidozyma auris, CA17, geometric mean, read-out: MIC GM
How it was run: as §3

[1] = test system: C. albicans ATCC 10231, C. tropicalis ATCC 200956, and C. auris CDC B11903; experiment: Time–kill assay, control drugs; assay type: cell-based, Candida spp.; settings: fungicidal and fungistatic control drugs
Method: Time–kill assays with the L. origanoides (thymol + p-cymene) chemotype (Code 0018) EO, thymol, FLC, and AMB against C. albicans ATCC 10231, C. tropicalis ATCC 200956, and C. auris CDC B11903 were performed according to the protocol published by Klebser et al. with some modifications. […] Absorbance at λ = 490 nm was measured every 2 h with a Multiskan SkyHigh Microplate Spectrophotometer. AMB and FLC were included as fungicidal and fungistatic control drugs, respectively.

C. tropicalis ATCC 750 = experiment: MIC, CLSI M27 broth microdilution; assay type: cell-based, Candida tropicalis; settings: antifungal drugs; for MIC: Candida tropicalis, ATCC750, geometric mean
How it was run: as §3

[2] = test system: C. tropicalis ATCC 200956; experiment: MIC, CLSI M27 broth microdilution; assay type: cell-based, Candida tropicalis; settings: C. tropicalis ATCC 200956; for MIC Range / MIC: antifungal drugs; for MIC: Candida tropicalis, ATCC200956, geometric mean, read-out: MIC GM
How it was run: as §3

C. krusei ATCC 6258 = experiment: MIC, CLSI M27 broth microdilution; assay type: cell-based, Candida krusei; settings: C. krusei ATCC 6258, antifungal drugs; for MIC: Pichia kudriavzevii, ATCC6258, geometric mean, read-out: MIC GM
How it was run: as §3

[3] = test system: C. parapsilosis ATCC 22019; experiment: MIC, CLSI M27 broth microdilution; assay type: cell-based, Candida parapsilosis; settings: antifungal drugs; for MIC: Lodderomyces parapsilosis, ATCC22019, geometric mean
How it was run: as §3

[4] = test system: C. parapsilosis Synlab 406; experiment: MIC, CLSI M27 broth microdilution; assay type: cell-based, Candida parapsilosis; settings: C. parapsilosis Synlab 406; for MIC Range / MIC: antifungal drugs; for MIC: Lodderomyces parapsilosis, SYNLAB406, geometric mean, read-out: MIC GM
How it was run: as §3

SMILES | MIC (C. albicans ATCC 10231) | MIC Range (C. albicans ATCC 10231) | MIC (C. albicans ATCC 64550) | MIC Range (C. albicans ATCC 64550) | MIC Range (C. auris Ca 32) | MIC (C. auris Ca 32) | MIC Range (C. auris Ca 1) | MIC (C. auris Ca 1) | MIC Range (C. auris Ca 9) | MIC (C. auris Ca 9) | MIC Range (C. auris Ca 41) | MIC (C. auris Ca 41) | MIC Range (C. auris Ca 45) | MIC (C. auris Ca 45) | MIC Range (C. auris CDC B11903) | MIC (C. auris CDC B11903) | MIC (C. auris Ca 10) | MIC Range (C. auris Ca 10) | MIC Range (C. auris Ca 46) | MIC (C. auris Ca 46) | also measured
C[C@@H]1[C@H](O)[C@@H](C)/C=C/C=C/C=C/C=C/C=C/C=C/C=C/[C@H](O[C@@H]2O[C@H](C)[C@@H](O)[C@H](N)[C@@H]2O)C[C@@H]2O[C@](O)(C[C@@H](O)C[C@@H](O)[C@H](O)CC[C@@H](O)C[C@@H](O)CC(=O)O[C@H]1C)C[C@H](O)[C@H]2C(=O)O [AMB, amphotericin B] | 0.04 µg/mL (≈ 0.0433 µM) | 0.03 to 0.12 µg/mL | 0.04 µg/mL (≈ 0.0433 µM) | 0.03 to 0.12 µg/mL | 0.12 to 0.5 µg/mL | 0.19 µg/mL (≈ 0.206 µM) | 0.12 to 0.25 µg/mL | 0.2 µg/mL (≈ 0.216 µM) | 0.12 to 0.5 µg/mL | 0.25 µg/mL (≈ 0.271 µM) | 1 µg/mL (≈ 1.08 µM) | 1 µg/mL (≈ 1.08 µM) | 1 to 2 µg/mL | 1.41 µg/mL (≈ 1.53 µM) | 0.06 to 0.12 µg/mL | 0.07 µg/mL (≈ 0.0758 µM) | 0.18 µg/mL (≈ 0.195 µM) | 0.12 to 0.25 µg/mL | 1 to 2 µg/mL | 1.4 µg/mL (≈ 1.52 µM) | susceptibility category (C. auris Ca 41; CDC breakpoints): AMB-resistant; susceptibility category (C. auris Ca 45; CDC breakpoints): AMB-resistant; susceptibility category (C. auris Ca 46; CDC breakpoints): AMB-resistant; MIC Range (C. auris Ca 17): 0.06 to 0.25 µg/mL; MIC (C. auris Ca 17): 0.15 µg/mL (≈ 0.162 µM); effect in time–kill assay (control drugs) [1]: fungicidal; MIC (C. tropicalis ATCC 750): 0.11 µg/mL (≈ 0.119 µM); MIC Range (C. tropicalis ATCC 750): 0.06 to 0.12 µg/mL; MIC Range [2]: 1 to 2 µg/mL; susceptibility category ([2]; resistance confirmed): resistance; MIC [2]: 1.41 µg/mL (≈ 1.53 µM); MIC Range (C. krusei ATCC 6258): 0.12 to 0.25 µg/mL; MIC (C. krusei ATCC 6258): 0.15 µg/mL (≈ 0.162 µM); MIC [3]: 0.06 µg/mL (≈ 0.0649 µM); MIC Range [3]: 0.06 µg/mL (≈ 0.0649 µM); MIC Range [4]: 0.06 to 0.25 µg/mL; MIC [4]: 0.15 µg/mL (≈ 0.162 µM)
OC(Cn1cncn1)(Cn1cncn1)c1ccc(F)cc1F [FLC, fluconazole] | 4 µg/mL (≈ 13.1 µM) | 4 µg/mL (≈ 13.1 µM) | 5.6 µg/mL (≈ 18.3 µM) | 4 to 8 µg/mL | 8 to 16 µg/mL | 11.3 µg/mL (≈ 36.9 µM) | 4 µg/mL (≈ 13.1 µM) | 4 µg/mL (≈ 13.1 µM) | 4 µg/mL (≈ 13.1 µM) | 4 µg/mL (≈ 13.1 µM) | 2 µg/mL (≈ 6.53 µM) | 2 µg/mL (≈ 6.53 µM) | 2 µg/mL (≈ 6.53 µM) | 2 µg/mL (≈ 6.53 µM) | 1 to 2 µg/mL | 1.4 µg/mL (≈ 4.57 µM) | 4 µg/mL (≈ 13.1 µM) | 4 µg/mL (≈ 13.1 µM) | 2 to 4 µg/mL | 2.8 µg/mL (≈ 9.14 µM) | susceptibility category (C. auris Ca 17; CDC breakpoints): FLC-resistant; MIC Range (C. auris Ca 17): 32 µg/mL (≈ 104 µM); MIC (C. auris Ca 17): 32 µg/mL (≈ 104 µM); effect in time–kill assay (control drugs) [1]: fungistatic; MIC (C. tropicalis ATCC 750): 1.4 µg/mL (≈ 4.57 µM); MIC Range (C. tropicalis ATCC 750): 1 to 2 µg/mL; MIC Range [2]: >64 µg/mL; MIC [2]: > 64 µg/mL; MIC Range (C. krusei ATCC 6258): 8 µg/mL (≈ 26.1 µM); MIC (C. krusei ATCC 6258): 8 µg/mL (≈ 26.1 µM); MIC [3]: 0.7 µg/mL (≈ 2.29 µM); MIC Range [3]: 0.5 to 1 µg/mL; MIC Range [4]: 8 to 16 µg/mL; susceptibility category ([4]; resistance confirmed): resistance; MIC [4]: 11.3 µg/mL (≈ 36.9 µM)
